Measured values as given in ChEMBL document CHEMBL4000165, “Chemosensitizing effect of Paris Saponin I on Camptothecin and 10-hydroxycamptothecin in lung cancer cells via p38 MAPK, ERK, and Akt signaling pathways” (Eur J Med Chem, 2017).
Calls of active or inactive are those of the source. No cut-off for these calls is given here.

How the values were obtained:
[1] = system: NCI-H1299; assay: Induction of apoptosis in human NCI-H1299 cells assessed as increase in caspase-9 expression at 0.3 uM in presence of CPT by Western blot method; assay type: functional, cell-based
[2] = system: NCI-H1299; assay: Decrease in p38 MAPK protein expression in human NCI-H1299 cells at 0.3 uM in presence of HCPT by Western blot method; assay type: functional, cell-based
[3] = system: NCI-H446; assay: Induction of apoptosis in human NCI-H446 cells assessed as activation of caspase-3/7 at 0.6 uM after 48 hrs by luciferase reporter gene assay; assay type: functional, cell-based
[4] = system: NCI-H460; assay: Induction of apoptosis in human NCI-H460 cells at 0.6 uM up to 20 mins in presence of HCPT by acridine orange/ ethidium bromide staining based fluorescence microscopic method relative to control; assay type: functional
[5] = system: NCI-H446; assay: Effect on ERK1/2 protein expression in human NCI-H446 cells at 0.6 uM in presence of HCPT by Western blot method; assay type: functional, cell-based
[6] = system: NCI-H460; assay: Cytotoxicity against human NCI-H460 cells assessed as reduction in cell viability after 48 hrs by MTT assay; assay type: functional, cell-based; conditions: NCI-H460, 48 h
[7] = system: NCI-H520; assay: Cytotoxicity against human NCI-H520 cells assessed as reduction in cell viability after 48 hrs by MTT assay; assay type: functional, cell-based; conditions: NCI-H520, 48 h
[8] = system: NCI-H460; assay: Induction of apoptosis in human NCI-H460 cells at 0.6 uM after 24 to 48 hrs by Annexin-V FITC/propidium iodide staining based flow cytometry; assay type: functional, cell-based
[9] = system: NCI-H1299; assay: Induction of apoptosis in human NCI-H1299 cells assessed as activation of caspase-3/7 at 0.3 uM after 48 hrs by luciferase reporter gene assay; assay type: functional, cell-based
[10] = system: NCI-H446; assay: Induction of apoptosis in human NCI-H446 cells assessed as activation of caspase-3/7 at 0.6 uM after 48 hrs in presence of HCPT by luciferase reporter gene assay; assay type: functional, cell-based
[11] = system: NCI-H1299; assay: Induction of apoptosis in human NCI-H1299 cells at 0.3 uM after 24 to 48 hrs by Annexin-V FITC/propidium iodide staining based flow cytometry; assay type: functional, cell-based
[12] = system: NCI-H460; assay: Induction of apoptosis in human NCI-H460 cells assessed as activation of caspase-3/7 at 0.6 uM after 48 hrs by luciferase reporter gene assay; assay type: functional, cell-based
[13] = system: NCI-H460; assay: Induction of apoptosis in human NCI-H460 cells assessed as activation of caspase-3/7 at 0.6 uM after 48 hrs in presence of HCPT by luciferase reporter gene assay; assay type: functional, cell-based
[14] = system: NCI-H1299; assay: Cytotoxicity against human NCI-H1299 cells assessed as reduction in cell viability by measuring combinantion index at 0.3 to 0.6 uM after 48 hrs in presence of CPT by MTT assay; assay type: functional
[15] = system: NCI-H446; assay: Induction of apoptosis in human NCI-H446 cells at 0.6 uM up to 20 mins in presence of CPT by acridine orange/ ethidium bromide staining based fluorescence microscopic method relative to control; assay type: functional
[16] = target: T1, MAP kinase p38 (Homo sapiens) (UniProt O15264+Q15759+Q16539+P53778); assay: Increase in p38 MAPK phosphorylation in human NCI-H1299 cells at 0.3 uM in presence of CPT by Western blot method; assay type: cell-based
[17] = target: T1, MAP kinase p38 (Homo sapiens); assay: Effect on p38 MAPK phosphorylation in human NCI-H446 cells at 0.6 uM in presence of CPT by Western blot method; assay type: cell-based
[18] = system: NCI-H446; assay: Cytotoxicity against human NCI-H446 cells assessed as reduction in cell viability after 48 hrs by MTT assay; assay type: functional, cell-based; conditions: NCI-H446, 48 h
[19] = system: NCI-H1299; assay: Cytotoxicity against human NCI-H1299 cells assessed as reduction in cell viability after 48 hrs by MTT assay; assay type: functional, cell-based; conditions: NCI-H1299, 48 h
[20] = target: T1, MAP kinase p38 (Homo sapiens); assay: Increase in p38 MAPK phosphorylation in human NCI-H460 cells at 0.6 uM in presence of CPT by Western blot method; assay type: cell-based
[21] = system: NCI-H446; assay: Induction of apoptosis in human NCI-H446 cells at 0.6 uM in presence of CPT by Annexin-V FITC/propidium iodide staining based flow cytometry; assay type: functional, cell-based; conditions: TDE = time-dependent effect
[22] = system: NCI-H446; assay: Induction of apoptosis in human NCI-H446 cells assessed as activation of caspase-3/7 at 0.6 uM after 48 hrs in presence of CPT by luciferase reporter gene assay; assay type: functional, cell-based
[23] = system: NCI-H460; assay: Induction of apoptosis in human NCI-H460 cells assessed as activation of caspase-3/7 at 0.6 uM after 48 hrs in presence of CPT by luciferase reporter gene assay; assay type: functional, cell-based
[24] = organism: Homo sapiens; assay: Effect on Akt phosphorylation in human NCI-H446 cells at 0.6 uM in presence of CPT by Western blot method; assay type: cell-based
[25] = system: NCI-H460; assay: Induction of apoptosis in human NCI-H460 cells assessed as increase in caspase-9 expression at 0.6 uM in presence of CPT by Western blot method; assay type: functional, cell-based
[26] = organism: Homo sapiens; assay: Decrease in Akt phosphorylation in human NCI-H460 cells at 0.6 uM in presence of CPT by Western blot method; assay type: cell-based
[27] = system: NCI-H446; assay: Induction of apoptosis in human NCI-H446 cells assessed as increase in caspase-9 expression at 0.6 uM in presence of HCPT by Western blot method; assay type: functional, cell-based
[28] = system: NCI-H1299; assay: Induction of apoptosis in human NCI-H1299 cells at 0.3 uM up to 20 mins in presence of CPT by acridine orange/ ethidium bromide staining based fluorescence microscopic method relative to control; assay type: functional
[29] = system: NCI-H446; assay: Effect on Akt protein expression in human NCI-H446 cells at 0.6 uM in presence of CPT by Western blot method; assay type: functional, cell-based
[30] = system: NCI-H446; assay: Effect on ERK1/2 protein expression in human NCI-H446 cells at 0.6 uM in presence of CPT by Western blot method; assay type: functional, cell-based
[31] = target: T2, Mitogen-activated protein kinase; ERK1/ERK2 (Homo sapiens) (UniProt P27361+P28482); assay: Effect on ERK1/2 phosphorylation in human NCI-H446 cells at 0.6 uM in presence of CPT by Western blot method; assay type: cell-based
T2 sequence (P27361 whole entry, looked up): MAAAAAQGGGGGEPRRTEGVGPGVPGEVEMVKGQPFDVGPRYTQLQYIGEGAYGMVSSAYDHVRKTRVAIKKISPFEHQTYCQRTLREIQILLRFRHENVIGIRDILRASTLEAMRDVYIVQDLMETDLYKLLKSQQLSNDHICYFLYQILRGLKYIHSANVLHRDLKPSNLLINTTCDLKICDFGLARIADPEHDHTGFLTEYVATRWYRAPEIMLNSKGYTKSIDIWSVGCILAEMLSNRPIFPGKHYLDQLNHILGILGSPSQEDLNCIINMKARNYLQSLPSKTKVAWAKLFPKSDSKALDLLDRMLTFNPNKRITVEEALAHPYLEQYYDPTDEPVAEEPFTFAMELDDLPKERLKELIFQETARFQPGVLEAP
T2 sequence (P28482 whole entry, looked up): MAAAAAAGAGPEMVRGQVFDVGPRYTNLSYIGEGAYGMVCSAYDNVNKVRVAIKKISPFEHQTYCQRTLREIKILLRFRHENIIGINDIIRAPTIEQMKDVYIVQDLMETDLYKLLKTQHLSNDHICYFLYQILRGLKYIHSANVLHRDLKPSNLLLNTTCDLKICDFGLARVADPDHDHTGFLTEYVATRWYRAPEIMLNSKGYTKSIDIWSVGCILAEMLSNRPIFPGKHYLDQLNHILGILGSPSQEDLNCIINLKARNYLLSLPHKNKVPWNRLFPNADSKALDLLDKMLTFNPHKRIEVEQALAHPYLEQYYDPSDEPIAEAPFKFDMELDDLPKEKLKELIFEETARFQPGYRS

[32] = system: NCI-H1299; assay: Induction of apoptosis in human NCI-H1299 cells assessed as pro-apoptotic cells at 0.3 uM after 48 hrs in presence of CPT by Annexin-V FITC/propidium iodide staining based flow cytometry; assay type: functional
[33] = system: NCI-H446; assay: Induction of apoptosis in human NCI-H446 cells assessed as increase in cleaved PARP expression at 0.6 uM in presence of CPT by Western blot method; assay type: functional, cell-based
[34] = target: T2, Mitogen-activated protein kinase; ERK1/ERK2 (Homo sapiens); assay: Decrease in ERK1/2 phosphorylation in human NCI-H460 cells at 0.6 uM in presence of CPT by Western blot method; assay type: cell-based
[35] = system: NCI-H446; assay: Effect on p38 MAPK protein expression in human NCI-H446 cells at 0.6 uM in presence of HCPT by Western blot method; assay type: functional, cell-based
[36] = system: NCI-H446; assay: Cytotoxicity against human NCI-H446 cells assessed as reduction in cell viability by measuring combinantion index at 0.3 to 0.6 uM after 48 hrs in presence of CPT by MTT assay; assay type: functional

SMILES: C[C@@H]1CC[C@@]2(OC1)O[C@H]1C[C@H]3[C@@H]4CC=C5C[C@@H](O[C@@H]6O[C@H](CO)[C@@H](O[C@@H]7O[C@@H](CO)[C@H](O)[C@H]7O)[C@H](O)[C@H]6O[C@@H]6O[C@@H](C)[C@H](O)[C@@H](O)[C@H]6O)CC[C@]5(C)[C@H]4CC[C@]3(C)[C@H]1[C@@H]2C
- Activity [1]: Active
- Activity [2]: Active
- Activity [3]: inactive
- fold change (FC) [4]: 2
- Activity [5]: Active
- IC50 [6]: < 1000 nM
- IC50 [7]: < 1000 nM
- Activity [8]: Active
- Activity [9]: inactive
- Activity [10]: Active
- Activity [11]: Active
- Activity [12]: inactive
- Activity [13]: Active
- CI [14]: <1
- fold change (FC) [15]: 2
- Activity [16]: Active
- Activity [17]: inactive
- IC50 [18]: < 1000 nM
- IC50 [19]: < 1000 nM
- Activity [20]: Active
- Activity [21]: Tde
- Activity [22]: Active
- Activity [23]: Active
- Activity [24]: Active
- Activity [25]: Active
- Activity [26]: Active
- Activity [27]: Active
- fold change (FC) [28]: 2
- Activity [29]: inactive
- Activity [30]: Active
- Activity [31]: Active
- Activity [32]: 60%
- Activity [33]: Active
- Activity [34]: Active
- Activity [35]: inactive
- CI [36]: <1
